These results are taken from article PMC3720801, “A Proline-Hinge Alters the Characteristics of the Amphipathic α-helical AMPs” (PLoS ONE, 2013).

Test [1] deals with T. begellii. As to the kind of experiment: Confocal laser-scanning microscopy, localization of FITC-conjugated peptides. It counts as cell-based. The following applies: 15 min at 28°C.
The nature of test [2]: In vitro binding assay to insoluble polysaccharide. The following applies: 100 µg polysaccharide + 5 µg peptide, room temperature 1 h, SDS-PAGE. The method, then: Chitin (β-1,4-N-acetyl-D-glucosamine), chitosan (β-1,4-D-glucosamine), cellulose (β-1,4-glucan), curdlan (β-1,3-glucan) and peptidoglycan (β-1,4-glycosidic linkage between N-acetyl muramic and N-acetylglucosamine) were used for the in vitro binding assay of Anal 3-Pro. One hundred µg of each insoluble polysaccharide was added in 5 µg of purified Anal 3-Pro and incubated at room temperature with mild agitation for 1 h. The mixture was centrifuged (10,000×g for 2 min) and the pellet was washed three times with 1 ml of washing buffer (10 mM Tris, pH 7.5, 500 mM NaCl, 0.02% Tween 20). The peptide bound to insoluble polysaccaharide was detached by adding SDS-polyacrylamide gel electrophoresis sample buffer.

Test [3] has as its system plasmid DNA (pBluescript SK(+)). As to the kind of experiment: DNA gel retardation. The class given is binding. The following applies: plasmid DNA 100 ng, 10 min at 37°C, agarose gel.
The nature of test [4]: FITC-dextran leakage from liposomes. The following applies: 10 µM peptide, peptide/lipid 1/10, 25°C, FITC fluorescence. The method, then:
FITC-labeled dextrans (FD-4, 10, 20, 40, 70 and 500) were utilized as model cytoplasmic components. FD (fluorescein isothiocyanate dextrans), with average molecular masses of 4, 10, 20, 40, 70, and 500 kDa were all purchased from the Sigma Chemical Co. (St. Louis, MO). FD-entrapping liposomes (unilamellar vesicles) with different lipid compositions were prepared using the reverse-phase evaporation method, after which the concentrations of the FD-entrapping vesicles were determined in triplicate using a phosphorus assay. To prepare FD-entrapping liposomes, a buffer solution (buffer II: PBS) containing 2 mg/ml of the FD was sonicated for 30 min with a lipid solution in chloroform (20 mg/ml) on ice. The chloroform was then gradually removed using a rotary vacuum evaporator at 25°C, resulting first in the formation of a viscous gel and then a liposome suspension. Buffer (2 ml) was added, and the suspension was evaporated further to remove the remaining solvent. The liposome suspensions were then centrifuged and washed for several cycles at 22,000×gav for 30 min in order to remove unentrapped-FD. The washed liposomes were extruded 30 times through polycarbonate filters (two stacked 0.4-µm pore size filters) using an Avanti Mini-Extruder (Avanti Polar Lipids inc., Alabaster, AL) to obtain liposomes of homogeneous size (∼400 nm). Aliquots of the peptide solutions at appropriate concentrations were incubated with a suspension of FD-loaded liposomes (100 µM) for 1–20 min at 25°C, and were then centrifuged for 30 min at 22,000×g. The supernatants were recovered and the leakage was recorded by monitoring the FITC fluorescence intensity (excitation wavelength: 494 nm, emission wavelength: 520 nm). 100% leakage was achieved by addition of Triton X-100 to a final concentration of 1 mM. The percent leakage value was then plotted.

On to buforin II, for which the “intracellular localization of FITC-conjugated peptide” value in test [1] was “distributed throughout the fungal cells”. The binding to chitin entry in test [2] is “recognized only chitin”. Also, in test [3], the “amount of peptide at which retardation of the pDNA band was detected” value turned out to be 1 µg. Besides, in test [4], the “release of FD4 from PC/CH liposomes” value turned out to be 3.6%, the “release of FD4 from PE/PG liposomes” value was 5%, the “release of larger FD markers from PC/CH vesicles” value is reported as “unable to release any of the larger markers” and the “release of larger FD markers from PE/PG liposomes” value was “unable to release any of the larger markers”.
